Columns and labels:
PG9 = assay: ELISA of recombinant gp120 monomers with PG9; assay type: binding, human; conditions: gp120 monomer of the named strain
Fab PG9 = assay: Saturation transfer difference NMR of glycan binding to PG9; design: species or system human; conditions: for interaction with PG9 by STD NMR: 1.5 mM glycan, 15 μM Fab PG9
Text: FIGS. 6A-6B illustrate two glycans and a strand comprise a V1V2 site-of-vulnerability. Glycan, electrostatic, and sequence-independent interactions allow PG9 to recognize a glycopeptide site on V1V2. A, Site characteristics in CAP45 strain of HIV-1. Glycans 160 and 156 (173 with ZM109) are highlighted in light grey, and strands B and C are highlighted in dark grey, with the rest of V1V2 in semi-transparent white. The interactive surface of V1V2 with PG9 is shown, colored according the local electrostatic potential as in FIG. 5B. The contribution of each structural element to that surface is provided as a percentage of the total. […] C, Langmuir binding curve used to obtain the KD a function of glycan concentration (A signals correspond to N-acetyl protons, which are shown in the boxed area of the upper panel). D, Stacked STD NMR spectra as a function of Man5GlcNAc2-Asn concentration.
FIG. 25 illustrates binding of GlcNAc2 to PG9 by NMR. STD (lower trace) and reference (upper trace) NMR spectra of 1.5 mM GlcNAc2 in the presence of 15 μM Fab PG9.
FIG. 26 illustrates binding of mannopentaose to PG9 by NMR. STD (lower trace) and reference (upper trace) NMR spectra of 1.5 mM mannopentaose (structure shown above) in the presence of 15 μM Fab PG9.
All NMR experiments were carried out at 298 K on Bruker avance 600 or avance 500 instruments equipped with a triple resonance cryo-probe incorporating gradients in z-axis. 1D STD spectra were acquired by selectively irradiating at −1 ppm and +40 ppm as on- and off-resonance frequencies, respectively, using a train of 50 ms Gaussian-shaped radio frequency pulses separated by 1 ms delays and an optimized power level of 57 db. During NMR experiments water suppression was achieved by binomial 3-9-19 pulse sequence and protein resonances were suppressed by applying 10 ms T1ρ filter. Samples were prepared in 20 mM sodium phosphate buffer containing 50 mM sodium chloride at pH 6.8. The NMR data were processed and analyzed by using TOPSPIN 2.1. […]

Compound | PG9 recognition in the gp120 monomer context (PG9) | other results
16055: gp120 monomer of HIV-1 Clade C strain 16055, SEQ ID NO: 6 [compound 16055] | retained PG9 recognition | 
CC(=O)N[C@H]1[C@H](O[C@H]2[C@H](O)[C@@H](NC(C)=O)C(O)O[C@@H]2CO)O[C@H](CO)[C@@H](O)[C@@H]1O (some centres unmarked) [(N-acetylglucosamine)2] |  | interaction with PG9 by STD NMR (Fab PG9): not observed
CC(=O)N[C@@H]1[C@@H](O)[C@H](O[C@@H]2O[C@H](CO)[C@@H](O[C@@H]3O[C@H](CO[C@H]4O[C@H](CO[C@H]5O[C@H](CO)[C@@H](O)[C@H](O)[C@@H]5O)[C@@H](O)[C@H](O[C@H]5O[C@H](CO)[C@@H](O)[C@H](O)[C@@H]5O)[C@@H]4O)[C@@H](O)[C@H](O[C@H]4O[C@H](CO)[C@@H](O)[C@H](O)[C@@H]4O)[C@@H]3O)[C@H](O)[C@H]2NC(C)=O)[C@@H](CO)O[C@H]1NC(=O)C[C@H](N)C(=O)O [Asn-(N-actylglucosamine)2(mannose)5] |  | Kd (Fab PG9; titration series, Langmuir binding curve, read-out: affinity for PG9): 1.6 ± 0.9 mM
CC(=O)N[C@H]1[C@H](O[C@H]2[C@H](O)[C@@H](NC(C)=O)C(O)O[C@@H]2CO)O[C@H](CO)[C@@H](O[C@@H]2O[C@H](CO[C@H]3O[C@H](CO[C@H]4O[C@H](CO)[C@@H](O)[C@H](O)[C@@H]4O)[C@@H](O)[C@H](O[C@H]4O[C@H](CO)[C@@H](O)[C@H](O)[C@@H]4O)[C@@H]3O)[C@@H](O)[C@H](O[C@H]3O[C@H](CO)[C@@H](O)[C@H](O)[C@@H]3O)[C@@H]2O)[C@@H]1O (some centres unmarked) [oligomannose-5] |  | interaction with PG9 by STD NMR (Fab PG9): weak interactions
CAP45: gp120 monomer of HIV-1 Clade C strain CAP45, SEQ ID NO: 3 | retained PG9 recognition | 
TRJO: gp120 monomer of HIV-1 Clade B strain TRJO, SEQ ID NO: 7 | retained PG9 recognition | 
ZM53: gp120 monomer of HIV-1 Clade C strain ZM53, SEQ ID NO: 4 | retained PG9 recognition | 
ZM109: gp120 monomer of HIV-1 Clade C strain ZM109, SEQ ID NO: 2 | retained PG9 recognition | 
